Data: US6486326B2, “iso-CBI and iso-CI analogs of CC-1065 duocarmycins” (The Scripps Research Institute, priority 1997, dated 2002)

Experiments:
w836 DNA (146 bp) = test: DNA alkylation selectivity and efficiency, thermally-induced strand cleavage of w836 DNA; assay type: biochemical
Procedure: FIG. 6 illustsrates thermally-induced strand cleavage of w836 DNA (146 bp, nucleotide nos. 5189-91): DNA-agent incubation for 24 h ((−)-iso-CBI-TMI) at 25° C., removal of unbound agent and 30 min of thermolysis (100° C.), followed by denaturing 8% PAGE and autoradiography; lane 1, control DNA; lanes 2-5, Sanger G, C, A, and T sequencing reactions; lanes 6-8 (−)-iso-CBI-TMI ([…] to 1×10^−5 M); lanes 9-10, (+)-duocarmycin SA (1×10^−5 to 1×10^−6 M); lanes 11-12, (+)-iso-CBI-TMI (1×10^−2 and 1×10^−3).
DNA Alkylation Selectivity and Efficiency: The DNA alkylation properties of the agents were examined within w794 and w836 duplex DNA for which comparative results are available for related agents. (Boger, D. L., et al., J. Am. Chem. Soc. 1994, 116, 11335; Boger, D. L., et al., J. Am. Chem. Soc. 1994, 116, 6461; and Boger, D. L., et al., J. Am. Chem. Soc. 1995, 117, 11647) The alkylation site identification and the assessment of the relative selectivity among the available sites were obtained by thermally-induced strand cleavage of the singly 5′ end-labeled duplex DNA after exposure to the agents. […]

[1] = tested on: w794 DNA (SV40 DNA segment, 144 bp); details: from earlier studies (refs 10, 11); cited from earlier work

SMILES	DNA alkylation sites / selectivity (w836 DNA (146 bp))	DNA alkylation efficiency, less efficient than duocarmycin SA [1]
COc1cc2cc(C(=O)N3CC4CC45C(=O)c4ccccc4C=C35)[nH]c2c(OC)c1OC (single isomer, unassigned; (+)) [(+)-iso-CBI-TMI, 2-[(5,6,7-Trimethoxyindol-2-yl)carbonyl]-1,2,9,9a-tetrahydrocyclopropa[c]benzo[f]indol-8-one]	selectivity identical to that of ent-(-duocarmycin SA	
COC(=O)[C@]1(C)NC2=C(C1=O)[C@@]13C[C@@H]1CN(C(=O)c1cc4cc(OC)c(OC)c(OC)c4[nH]1)C3=CC2=O [duocarmycin A]		ca. 10 ×
